# Measured values as given in patent US4109011A, “Insecticide carbamates of N-(polychloroallyl)-amino-phenols” (priority 1975, dated 1978).
# Columns and labels:
# [1] = tested on: Leptinotarsa Decimlineata; test: Biological activity on Leptinotarsa decemlineata larvae, sprayed potato seedlings; format: in vivo; details: read-out: Percent of Mortality
# Meloidogyne Incognita = test: Biological activity on Meloidogyne incognita (nematocide activity, galls on tomato seedlings); format: in vivo; details: vs control
# Procedure: Biological Activity on Meloidogyne Incognita (Nematoda)
# A 1:1 mixture of field earth and sand infested by new-born larvae and eggs of the nematode was treated by uniformly mixing with a hydroacetone dispersion (20% by vol. of acetone) at a concentration of 0.1% and of 0.02% of the compounds under test so as to get soil samples containing 100 ppm and 20 ppm, respectively, of active principle. The soil was introduced into plastic pots and after 5 days, 5 tomato seedlings about 15 cm high were transplanted into each of them. Fourteen days after transplantation, the roots of the seedlings extracted from the soil were examined in order to determine the degree of infestation by counting the galls which had formed.
# The nematocide activity is expressed in Table 13 as the percentage of infestation reduction with respect to the control (seedlings transplanted into the same soil treated with a dispersion free from active principle).
# Culex Pipiens = test: Biological activity on Culex pipiens (mosquito larvae in aqueous dispersion); format: in vivo; details: 24 h, read-out: Percent of Mortality
# Excerpt: Biological Activity on Culex Pipiens (Diptera)
# Mosquito larvae of the third and fourth ages were introduced into glass pots containing an aqueous dispersion of the compounds shown at 2 ppm and 0.2 ppm.
# (§1) To show the variation in activity from one compound to another, depending on the species used, the activities of compounds according to this invention were investigated at different concentrations, expressed as percent of active principle, on various infesting species. The mortality percentage was computed in the same way as in the preceding examples.
# Pieris Brassicae = test: Biological activity on Pieris brassicae larvae, sprayed cut cauliflower leaves; format: in vivo; details: 0.1 percent, larvae, read-out: Percent of Mortality
# Excerpt: Biological Activity on Pieris Brassicae (Lepidoptera)
# Cut leaves of cauliflower were sprayed with an aqueous dispersion of compound according to this invention at a 0.1% concentration. After drying, they were infested with 5-day old larvae. The mortality percentage of the control, untreated leaves, was zero.
# as §1
# [2] = tested on: Leptinotarsa Decimlineata; test: Biological activity on Leptinotarsa decemlineata larvae, sprayed potato seedlings; format: in vivo; details: read-out: Percent of Mortality; remark: listed apart in the source
# Excerpt: Biological Activity on Leptinotarsa Decimlineata Coleoptera
# Potato seedlings cultivated in pots were infested with 4-day old larvae and sprayed with an aqueous dispersion of the compounds according to this invention and Aminocarb as a comparison at doses of […]; respectively. The mortality percentage of the control, untreated seedlings, was zero.
# as §1
# Macrosiphum Euphorbiae = test: Biological activity on Macrosiphum euphorbiae (aphides), potato seedlings sprayed with aqueous dispersion; format: in vivo; details: 24 h, read-out: Mortality Percent
# Procedure: Biological Activity on Macrosiphum Euphorbiae (Aphides)
# Potato seedlings, cultivated in pots, were infested with adult aphide females and, after a few hours, were sprayed with an aqueous dispersion of the compounds listed in Table 6. The mortality percentage was determined 24 hours after the treatment (on control non-treated seedlings, the mortality percentage was 0).
# as §1
# [3] = Acute toxicity on white rats, administered orally; details: rat, in vivo, po
# Spodoptera Littoralis = test: Biological activity on Spodoptera littoralis larvae, sprayed cut tobacco leaves; format: in vivo; details: 0.1 percent, larvae, 48 hours, read-out: Percent of Mortality
# Excerpt: Biological Activity on Spodoptera Littoralis (Lepidoptera)
# Cut tobacco leaves were sprayed with a 0.1% aqueous dispersion of compounds according to the present invention, shown in Table 12. After drying, the leaves were infested with 5-day old lepidopter larvae. The mortality percentage of the control was zero.
# as §1
# Tetranychus Urticae = test: Biological activity on Tetranychus urticae eggs, bean leaf discs; format: in vivo; details: foliar, read-out: Percent of Mortality
# Excerpt: Biological Activity on Tetranychus Urticae (Acari)
# Small discs of bean leaves were infested with acarus eggs and successively treated by spraying with an aqueous dispersion of a compound of this invention and Aminocarb as a comparison, at concentrations of 0.1 and 0.01%. The mortality percentage of the control, untreated discs, was zero.
# as §1
# Musca Domestica = test: Biological activity on Musca domestica, topical application to adults; format: in vivo; details: 24 h, read-out: Percent of Mortality
# Procedure: Biological Activity on Musca Domestica (Diptera)
# Four day old adults were treated by topical application through a microsyringe with 1 mm^3 of an acetonic solution of the compounds shown in such concentrations that they received doses of 5γ/insect; 2γ/insect; 0.5γ/insect of active principle. The mortality percentage 24 hours after the treatment is reported in Table 8 (mortality of insects treated with 1 mm^3 of acetone = 0).
structure (smiles),measurement,setting,value
CNC(=O)Oc1cccc(NCC=C(Cl)Cl)c1 [M 6370],mortality at 0.01 %,[1],100%
same,Reduction of Infestation,Meloidogyne Incognita; 20 ppm in soil,100%
same,Reduction of Infestation,Meloidogyne Incognita; 100 ppm in soil,100%
same,mortality at 0.2 ppm,Culex Pipiens,17%
same,mortality at 2 ppm,Culex Pipiens,94%
same,mortality at 0.1 %,Pieris Brassicae,90%
same,mortality at 0.1 %,[2],100%
same,mortality at 0.01 %,Macrosiphum Euphorbiae,100%
same,LD50,[3],100 mg/kg
CNC(=O)Oc1ccc(NCC=C(Cl)Cl)c(C)c1 [M 6432],mortality at 0.1 %,Spodoptera Littoralis,100%
same,mortality at 0.1 %,Pieris Brassicae,100%
CNC(=O)Oc1ccc(NCC(Cl)=C(Cl)Cl)c(C)c1 [M 6737],mortality at 0.1 %,Spodoptera Littoralis,100%
same,mortality at 0.1 %,Pieris Brassicae,100%
same,mortality at 0.01 %,Tetranychus Urticae,80%
same,mortality at 0.1 %,Tetranychus Urticae,100%
CNC(=O)Oc1ccc(C)c(NCC(Cl)=C(Cl)Cl)c1 [M 6738],mortality at 0.01 %,[1],100%
same,mortality at 2 µg/insect,Musca Domestica,100%
same,mortality at 5 µg/insect,Musca Domestica,100%
same,mortality at 2 ppm,Culex Pipiens,100%
same,mortality at 0.1 %,[2],100%
same,LD50,[3],100 mg/kg
CNC(=O)Oc1cccc(NCC(Cl)=C(Cl)Cl)c1 [M 6740],mortality at 0.01 %,[1],100%
same,mortality at 2 ppm,Culex Pipiens,100%
same,mortality at 0.1 %,[2],100%
